Data on 7 compounds can be found in patent US7604949B2, “Methods and compositions that affect melanogenesis” (New York University, priority 1999, dated 2009).

One assay deals with p-glycoprotein ATPase (Cricetulus griseus, UniProt P21448). To be noted: micromolar concentrations; cited from earlier work.
Assay [1] deals with Melan-p p-null melanocytes. Kind of assay: Melanin content after ATPase inhibitor treatment, Melan-p. The format is cell-based, mouse. To be noted: 36 hours. On the procedure: (§1) Wild type melan-a (a/a, P/P), an immortalized melanocyte line derived from C57BL6J mice; melan-p1 melanocytes (a/a, p^cp/p^25H), an immortalized line derived from p-null mice; melan-p1 (P10), a melan-p1 line stably transfected with an expression plasmid carrying the pink-eyed dilution gene; B16, an amelanotic mouse melanoma cell line; and B16F10, a slightly pigmented mouse melanoma cell line, were used in this study.
(§2) Cells were cultured in RMPI-1640 (Sigma, St. Louis, Mo.) supplemented with 10% fetal calf serum, 5% sodium pyruvate, 5% glutamate, 5 units/ml penicillin, 5 μg/ml streptomycin, 1% non-essential amino acids and 200 nM 12-O-tetradecanoyl phorbol 13-acetate for 24 hours The medium was than replaced with RPMI containing either 0, 1, 2 or 2.5 μM bafilomycin A1 (Sigma, St. Louis, Mo.) or 0, 0.5 or 1.0 μM concanamycin A (Sigma, St. Louis, Mo.). […] The supernatant was removed and protein content determined using a protein assay kit (BioRad, Richmond, Calif.).
(§3) The melanin content in the pellet was determined following removal of the supernatant Each sample was treated with 0.5 ml ethanol:ether (1:1), vortexed and incubated at room temperature for 10 minutes. […] The sample was then transferred to a 96-well plate and the optical density was read at 490 nm. […]

The subject of assay [2] is amelanotic melanoma cells that express tyrosinase. To be noted: nanomolar concentrations; cited from earlier work.
Another assay deals with B16 melanoma cells. Kind of assay: Melanin content after ATPase inhibitor treatment, B16. The format is cell-based, mouse. To be noted: 36 hours. On the procedure:
as §1, §2, §3

Assay [3] deals with Melan-a wild type melanocytes. Kind of assay: Melanin content after ATPase inhibitor treatment, Melan-a. To be noted: 36 hours. The format is cell-based, mouse. Here is the method: as §1, §2, §3
The test system of a further assay is B16F10 melanoma cells. Kind of assay: Melanin content after ATPase inhibitor treatment, B16F10. To be noted: 36 hours. It counts as cell-based, mouse. Here is the method:
as §1, §2, §3

The subject of a further assay is Melan-p (P10) cells. Kind of assay: Melanin content after ATPase inhibitor treatment, Melan-p (P10). It counts as cell-based, mouse. To be noted: 36 hours. Here is the method:
as §1, §2, §3

Assay [4] deals with T1, tyrosinase (Mus musculus, UniProt P11344).
T1 sequence (P11344 19-533): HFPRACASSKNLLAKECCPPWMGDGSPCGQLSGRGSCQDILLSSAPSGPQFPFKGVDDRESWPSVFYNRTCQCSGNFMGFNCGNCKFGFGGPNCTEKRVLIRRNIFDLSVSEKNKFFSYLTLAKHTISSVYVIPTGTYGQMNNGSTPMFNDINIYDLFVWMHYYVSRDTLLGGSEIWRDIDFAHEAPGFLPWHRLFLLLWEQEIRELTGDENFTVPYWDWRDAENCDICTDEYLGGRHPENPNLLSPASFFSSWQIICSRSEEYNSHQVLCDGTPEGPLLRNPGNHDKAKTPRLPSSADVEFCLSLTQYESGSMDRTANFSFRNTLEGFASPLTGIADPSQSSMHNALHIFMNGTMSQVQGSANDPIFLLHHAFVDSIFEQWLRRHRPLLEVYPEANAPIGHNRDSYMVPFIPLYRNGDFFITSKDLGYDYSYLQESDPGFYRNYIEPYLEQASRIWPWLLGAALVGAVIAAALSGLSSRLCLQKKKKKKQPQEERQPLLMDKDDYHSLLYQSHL
Kind of assay: Tyrosinase activity of melan-a cell extracts (radiometric tyrosine hydroxylase assay). The format is cell-based. To be noted: melan-a cells, 48 hours, vs untreated.

For assay [5], the target named is T1, tyrosinase. Kind of assay: Tyrosinase activity of extracts of COS cells transfected with tyrosinase-encoding gene alone (V+T). The format is cell-based. Also on record: expressed in transfected cells; host or cells: COS cells (monkey kidney). To be noted: vs untreated. An excerpt:
(§4) Expression vectors were constructed to express P protein and tyrosinase genes in cultured cells. Specifically, the coding sequence for tyrosinase was removed as a HindIII-EcoRI fragment from clone TYBS (Yokohama et al., 1990, Nucl. Acids. Res. 18:7293-7298) and cloned into the HindIII/EcoRI sites of pcDNA I/lamp (Invitrogen, Calif.). Coding sequence for the P protein was removed as a BamHI-EcoRI fragment from MC2701 (Gardner et al., 1992, supra) and cloned into the BamHI/EcoRV sites of pcDNA3 and pcDNA3.1/V5/His-TOPO (Invitrogen, Calif.). COS cells were transfected with the pcDNA1-based plasmids and FuGENE™ 6 (Roche Molecular Biochemicals, Indianapolis, Ind.) as transfection agents for 48 hours. Cells were transformed with: (i) the vector alone; (ii) the vector carrying a tyrosinase-encoding gene; (iii) the vector carrying a P protein-encoding gene; or (iv) vectors carrying a tyrosinase-encoding gene and a P protein-encoding gene. Transformed cells were washed and extracted as above. Tyrosinase activity was then measured as above. Tyrosinase assays were performed on 60 micrograms of cell protein.
(§5) The tyrosinase activity of cell extracts was determined as above.

A further assay has as its target T2, P protein (Mus musculus, UniProt Q62052).
T2 construct: expressed in transfected cells; host or cells: COS cells (monkey kidney), co-transfected with the tyrosinase vector
T2 sequence (Q62052 1-833): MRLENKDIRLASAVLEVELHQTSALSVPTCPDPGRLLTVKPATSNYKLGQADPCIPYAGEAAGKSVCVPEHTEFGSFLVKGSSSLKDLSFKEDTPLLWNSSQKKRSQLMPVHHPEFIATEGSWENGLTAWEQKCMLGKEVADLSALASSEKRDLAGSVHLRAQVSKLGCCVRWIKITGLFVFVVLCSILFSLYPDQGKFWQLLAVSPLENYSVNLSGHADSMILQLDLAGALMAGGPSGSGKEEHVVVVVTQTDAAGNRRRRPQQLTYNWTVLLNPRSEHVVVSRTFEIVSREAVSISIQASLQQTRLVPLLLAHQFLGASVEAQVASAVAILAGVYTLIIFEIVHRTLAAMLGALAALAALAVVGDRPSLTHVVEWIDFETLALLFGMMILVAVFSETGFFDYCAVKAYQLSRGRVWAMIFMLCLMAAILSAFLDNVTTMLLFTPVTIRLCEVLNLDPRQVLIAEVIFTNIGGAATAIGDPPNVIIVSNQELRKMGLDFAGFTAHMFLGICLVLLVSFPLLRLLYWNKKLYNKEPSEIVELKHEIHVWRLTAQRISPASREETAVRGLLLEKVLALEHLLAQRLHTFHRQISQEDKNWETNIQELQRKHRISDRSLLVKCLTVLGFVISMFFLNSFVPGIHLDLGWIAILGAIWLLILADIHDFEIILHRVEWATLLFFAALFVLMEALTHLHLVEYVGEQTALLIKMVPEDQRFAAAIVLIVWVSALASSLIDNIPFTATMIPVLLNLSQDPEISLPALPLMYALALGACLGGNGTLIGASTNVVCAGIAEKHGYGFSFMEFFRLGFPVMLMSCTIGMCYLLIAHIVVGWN
Kind of assay: Tyrosinase activity of extracts of COS cells transfected with tyrosinase-encoding and P protein-encoding genes (T+P). To be noted: vs untreated. It counts as cell-based.
From the text: as §4, §5

Assay [6] relates to late endosomal/lysosomal cholesterol trafficking. To be noted: cited from earlier work.
The mark [7] stands for this setting: bafilomycin A1 0, 1, 2 or 2.5 μM.
Where [8] appears, read: concanamycin A 0, 0.5 or 1.0 μM.

Each structure is given as a SMILES string.

Sequence of p-glycoprotein ATPase (P21448 whole entry): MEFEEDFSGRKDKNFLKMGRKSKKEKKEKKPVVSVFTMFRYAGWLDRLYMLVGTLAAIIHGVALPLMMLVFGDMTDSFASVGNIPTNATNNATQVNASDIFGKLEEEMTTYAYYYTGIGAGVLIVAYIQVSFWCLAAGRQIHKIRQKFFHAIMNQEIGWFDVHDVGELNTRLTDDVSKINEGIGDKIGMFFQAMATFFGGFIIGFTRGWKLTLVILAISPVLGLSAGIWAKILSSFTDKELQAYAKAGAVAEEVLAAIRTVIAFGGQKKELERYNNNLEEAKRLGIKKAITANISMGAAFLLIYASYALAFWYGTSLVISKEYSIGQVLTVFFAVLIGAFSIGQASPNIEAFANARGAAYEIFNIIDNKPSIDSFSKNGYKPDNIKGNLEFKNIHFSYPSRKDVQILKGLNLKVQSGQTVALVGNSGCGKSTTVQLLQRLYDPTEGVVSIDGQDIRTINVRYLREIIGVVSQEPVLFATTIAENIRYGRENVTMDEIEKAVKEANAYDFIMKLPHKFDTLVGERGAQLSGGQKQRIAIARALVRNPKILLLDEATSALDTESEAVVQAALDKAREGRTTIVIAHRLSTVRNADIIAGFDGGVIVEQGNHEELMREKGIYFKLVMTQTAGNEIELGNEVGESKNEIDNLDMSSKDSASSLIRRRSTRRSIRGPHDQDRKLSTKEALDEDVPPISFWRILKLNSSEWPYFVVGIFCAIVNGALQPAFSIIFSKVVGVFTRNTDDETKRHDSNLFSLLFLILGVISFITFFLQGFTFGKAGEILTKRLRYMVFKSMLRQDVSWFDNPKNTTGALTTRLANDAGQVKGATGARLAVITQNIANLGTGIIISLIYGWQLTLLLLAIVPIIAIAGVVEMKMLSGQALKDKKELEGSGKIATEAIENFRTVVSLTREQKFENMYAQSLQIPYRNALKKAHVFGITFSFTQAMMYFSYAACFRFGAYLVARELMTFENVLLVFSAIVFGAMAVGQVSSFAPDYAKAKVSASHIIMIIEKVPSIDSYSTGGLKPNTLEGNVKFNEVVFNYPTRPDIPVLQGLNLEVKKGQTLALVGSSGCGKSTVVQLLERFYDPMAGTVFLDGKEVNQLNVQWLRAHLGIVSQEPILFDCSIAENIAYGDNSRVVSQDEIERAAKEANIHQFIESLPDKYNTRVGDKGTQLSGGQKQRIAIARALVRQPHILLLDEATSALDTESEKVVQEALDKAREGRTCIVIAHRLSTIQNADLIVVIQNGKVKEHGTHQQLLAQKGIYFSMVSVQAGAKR

In the case of `CO/C1=C\C(C)=C\[C@@H](C)[C@@H](O)[C@@H](C)C/C(C)=C/C=C/[C@H](OC)[C@@H]([C@@H](C)[C@@H](O)[C@H](C)[C@@]2(O)C[C@@H](O)[C@H](C)[C@@H](C(C)C)O2)OC1=O` [bafilomycin A1], on p-glycoprotein ATPase, the “inhibition of p-glycoprotein ATPase activity” value is reported as “inhibit p-glycoprotein ATPase activity at micromolar concentrations”. Moreover, the melanin levels entry in [1] (setting [7]) was “increased with an increase in bafilomycin A1 concentration”. The activation of melanogenesis result in [2] is given as “activate melanogenesis”. Also, the melanin content entry is on record as “does not respond” with B16 melanoma cells (B16, bafilomycin A1 0, 1, 2 or 2.5 μM); “initially increases in the presence of μM concentrations of bafilomycin A1 but drops at the highest concentration tested” in [3] (setting [7]); “initially increases in the presence of μM concentrations of bafilomycin A1 but drops at the highest concentration tested” in the assay with Melan-p (P10) cells (setting [7]). Also, the pigmentation result in the assay on B16F10 melanoma cells (B16F10, bafilomycin A1 0, 1, 2 or 2.5 μM) was “demonstrates increasing pigmentation which diminishes at higher concentrations”.

As for `CN1[C@@H]2CC[C@H]1C[C@@H](OC(c1ccccc1)c1ccccc1)C2` [benztropine], on tyrosinase [4] (10 micromolar compound), the “tyrosinase activity of cell extracts” value was “greater tyrosinase activities than untreated cells”. At tyrosinase [5] (10 micromolar compound), the “tyrosinase activity of extracts, cells expressing only tyrosinase” value was “did not have an appreciable effect”. In addition, the “tyrosinase activity of extracts, cells expressing both P protein and tyrosinase” value at P protein (10 micromolar compound) is “did not have an appreciable effect”.

For the compound `C/C=C/[C@H]1O[C@@](O)([C@@H](C)[C@H](O)[C@H](C)[C@H]2OC(=O)/C(OC)=C/C(C)=C/[C@@H](C)[C@@H](O)[C@@H](CC)[C@@H](O)[C@H](C)C/C(C)=C/C=C/[C@@H]2OC)C[C@@H](O[C@H]2C[C@@H](O)[C@H](OC(N)=O)[C@@H](C)O2)[C@@H]1C` [concanamycin A], the “inhibition of p-glycoprotein ATPase activity” value at p-glycoprotein ATPase is on record as “inhibit p-glycoprotein ATPase activity at micromolar concentrations”. For the same compound, the melanin levels entry in assay [1] (setting [8]) is given as “increase with an increase in concanamycin A concentration”. In assay [2], the activation of melanogenesis entry is reported as “activate melanogenesis”. The melanin content result is “does not respond” in the assay with B16 melanoma cells (B16, concanamycin A 0, 0.5 or 1.0 μM); “is decreased” in assay [3] (setting [8]); “is decreased” in the assay with Melan-p (P10) cells (setting [8]). Also, in the assay with B16F10 melanoma cells (B16F10, concanamycin A 0, 0.5 or 1.0 μM), the pigmentation result is recorded as “demonstrates increasing pigmentation which diminishes at higher concentrations”.

As to `C/C=C/[C@H]1O[C@@](O)([C@@H](C)[C@H](O)[C@H](C)[C@H]2OC(=O)/C(OC)=C/C(C)=C/[C@@H](C)[C@@H](O)[C@@H](C)[C@@H](O)[C@H](C)C/C(C)=C/C=C/[C@@H]2OC)C[C@@H](O[C@H]2C[C@@H](O)[C@H](OC(N)=O)[C@@H](C)O2)[C@@H]1C` [concanamycin B], the “inhibition of p-glycoprotein ATPase activity” value at p-glycoprotein ATPase is “inhibit p-glycoprotein ATPase activity at micromolar concentrations”.

Take `O=C(O)/C=C\C(=O)O.O=[N+]([O-])c1ccc2nc(N3CCNCC3)ccc2c1` [nitroquipazine, 6-nitro-2-(1-piperazinyl)-quinoline maleate]: the “tyrosinase activity of cell extracts” value at tyrosinase [4] (30 micromolar compound) is “greater tyrosinase activities than untreated cells”. Also, the “tyrosinase activity of extracts, cells expressing only tyrosinase” value at tyrosinase [5] (30 micromolar compound) is “lower tyrosinase activity”. The “tyrosinase activity of extracts, cells expressing both P protein and tyrosinase” value at P protein (30 micromolar compound) is listed as “lower tyrosinase activity”.

For the compound `CC(=O)[C@H]1CC[C@H]2[C@@H]3CCC4=CC(=O)CC[C@]4(C)[C@H]3CC[C@]12C` [progesterone], in [6], the “cholesterol movement from the PM to the ER, from the late endosome/lysosome to the ER and to the PM” value is “inhibit cholesterol movement”.

For the compound `CCCCCCCCCCCCC/C=C/[C@@H](O)[C@@H](N)CO` [sphingosine], the “cholesterol movement from the PM to the ER, from the late endosome/lysosome to the ER and to the PM” value in [6] is recorded as “inhibit cholesterol movement”.
